The values below come from US11618772B2 (Kineta Chronic Pain, LLC, priority 2014, dated 2023).

Each structure is given as a SMILES string.

In the case of `C[C@@H](O)[C@@H]1NC(=O)[C@@H]2CSSC[C@@H](C(=O)N[C@@H](Cc3ccc(O)cc3)C(N)=O)NC(=O)[C@H](CCC(N)=O)NC(=O)[C@H](Cc3ccc(O)c(I)c3)NC(=O)[C@H](CCCNC(N)=O)NC(=O)[C@H](CSSC[C@H](NC(=O)CN)C(=O)N2)NC(=O)[C@H](CCCNC(=N)N)NC(=O)[C@@H]2CCCN2C(=O)[C@H](CC(=O)O)NC1=O` [CSP-4-NH2, GCCTDPRCX11X12QCY-amide], the “stability in human plasma (Citrate)” value is “increased stability compared to CSP-4”.
